{"source": "patent US20130236568A1", "about": "“PHOSPHAPLATINS HAVING ANTI-ANGIOGENIC, ANTI-METASTATIC, AND PRO-APOPTOTIC PROPERTIES AND USES THEREOF” (Ohio University, priority 2011, published 2013)", "key": {"[1]": {"system": "yeast deletion collection", "assay": "Genome-wide fitness assay in yeast (pooled deletion strains)", "assay_type": "cell-based", "conditions": "for Sensitivity of DNA damage/repair genes (NER, HRR, PRR): phosphaplatins at 200 μM final concentration", "excerpt": "The around 6000 strains in the yeast deletion collection can be studied in a single culture by using a microarray to detect the 20 bp DNA “barcodes” or “tags” contained in each strain. Barcode intensities are compared across time-points or across conditions to analyze the relative fitness of each strain. This development of the pooled fitness assay has greatly facilitated the functional annotation of the yeast genome by making genome-wide gene-deletion studies faster and easier, and has led to the development of high throughput methods for studying drug action in yeast. Pooled screens can be used for identifying gene functions, measuring the functional relatedness of gene pairs in order to group genes into pathways, identifying drug targets, and determining a drug's mechanism of action. This process involves five main steps: preparing aliquots of pooled cells, pooled growth, isolation of genomic DNA and PCR amplification of the barcodes, array hybridization (or next generation sequencing), and data analysis.\nThe pooled fitness assay involves five main steps (FIG. 3). First, the deletion collection is grown on solid media in arrayed format and the resulting cells are pooled and frozen to make cell aliquots that will be used for starting growth experiments. Cells are then grown in the desired conditions, typically for 5 to 20 generations. The barcodes from the resulting cell samples are prepared for hybridization by isolation of the genomic DNA and PCR amplification of the barcodes. The barcodes are amplified in two reactions to prevent crosstalk between the uptag and downtag primers. The resulting PCR products are then hybridized to tag arrays with one array needed per cell sample. Data is then analyzed to determine differences in strain representation between pairs of samples.\nTo analyze the genome wide effects of pyrodach-2 and -4, we screened 2 collections of strains, 1200 essential genes as heterozygote deletion mutants (reducing functional gene dose from 2 to 1) and 4800 non-essential genes as complete deletions (reducing functional gene dose from 2 to 0). Both compounds were screened at the highest dose possible (200 μM final concentration) to increase the likelihood of finding compound-specific sensitive strains.\nFitness profiling of pooled deletion strains involves […] main steps: • 1. Strains are first pooled at approximately equal abundance. • 2. The pool is grown competitively in the condition of choice and a control condition. If a gene is sensitive to the treatment condition, the strain carrying this deletion will grow more slowly and become under-represented relative to the control culture (purple strain). Resistant strains will grow faster and become over-represented (not shown). • 3. Genomic DNA is isolated from cells harvested at the end of pooled growth, and barcodes are amplified from the genomic DNA with universal primers. • 4. PCR products are then hybridized to an array that detects the tag sequences, giving tag intensities for the two samples. • 5. The treatment and control sample are then compared to determine the relative fitness of each strain. Note that only the purple strain is described as sensitive to the condition. While the red strain grows more slowly than the blue strain in the treatment, this growth difference in not of interest because it matches that seen in the control."}, "[2]": {"system": "VEGFR2 gene", "assay": "Quantitative real-time PCR, VEGFR2 gene expression in A2780 cells", "assay_type": "cell-based, human", "conditions": "A2780 (cisplatin-sensitive); positive = manifold increase, negative = relative decrease vs untreated cells; cisplatin 7 μM, pyrodach-4 180 μM", "protocol": "(§1) Evaluations of selected gene expressions in Human Umbilical Vein Endothelial Cells (HUVEC) and Human Ovarian Cancer Cells by quantitative reverse transcriptase polymerase chain reaction (PCR)\n(§2) Quantitative real-time PCR experiments were performed to estimate the expression of a selection of targeted genes. HUVEC cells (Lonza Walkersville, Frederick, Md.) were cultured on 0.1% gelatin-coated petri dishes by following standard protocols recommended by the vendor in a humidified incubator by maintaining 5% CO2 at 37° C. Human epithelial ovarian cancer cells (A2780) and cisplatin-resistant cells (A2780/C30) were cultured in RPMI 1640 with or without cisplatin (7 μM) and pyrodach-4 (180 μM) for 0, 3, 12 and 24 hours. […] HUVECs were treated with or without cisplatin (7 μM) or pyrodach-4 (90 or 180 μM) for various durations ranging from 1 hr. to 6 hrs.\n(§3) Both treated and untreated cancer cells were maintained in RPMI 1640 medium with 10% fetal bovine serum, 2 μmol L-glutamine, 100 units/mL penicillin-streptomycin and 0.25 units/mL insulin solution, at 37° C. with 5% CO2. RNA was isolated from both the treated and untreated cells. […] The quantity and purity of RNA were determined by UV spectroscopy (NanoDrop 2000 Thermo Scientific, Wilmington, Del.). A minimum absorbance ratio index (ratio of the absorbance measured at 260 nm over that at 280 nm) of 1.9 was used as an acceptable purity. […] The target gene was labeled with a blue dye (FAM, absorbance: 494 nm, emission: 518 nm) while the reference gene was tagged with a green dye (VIC, absorbance: 538 nm, emission: 554 nm). The cDNA concentrations were selected such that the threshold cycle (Ct) values for the target genes were between 17 and 32, most sensitive for the fluorescence detection by ABI StepOnePlus™ instrument used for the measurements.\n(§4) The threshold cycle number (Ct), the point at which the fluorescence of the qPCR reaction just exceeds the threshold fluorescence of the detection system, was determined. […]"}, "[3]": {"system": "VEGFR2 gene", "assay": "Quantitative real-time PCR, VEGFR2 gene expression in A2780/C30 cells", "assay_type": "cell-based, human", "conditions": "A2780/C30 (cisplatin-resistant); positive = manifold increase, negative = relative decrease vs untreated cells; cisplatin 7 μM, pyrodach-4 180 μM", "protocol": "as §1, §2, §3, §4"}, "[4]": {"system": "A2780/C30 cells", "assay": "Cell death detection assay with ELISA, A2780/C30 cells", "assay_type": "cell-based, human", "conditions": "7 μM cisplatin or 180 μM D4", "quoted_text": "In these experiments, ovarian cancer cells were treated with pyrodach-4 in the presence and absence of inhibitors PFT-α (an inhibitor p53) and LY29400 (an inhibitor of PI3K).\nThe different treatment groups from left to right are: control, 7 μM cisplatin, Con+PFT-α, 180 μM D4, 180 μM D4+PFT-α, 180 μM D4+LY294002. Apoptosis was quantified using the Cell Death Detection ELISA from Roche.\nA2780 and A2780/C30 cells were grown in monolayers, trypsinized and suspended in supplemented RPMI 1640 media as described in Example 5. All the treatments on the Fc/A2780 and Fc/A2780/C30 cell samples were carried out in triplicate. The ELISA was performed according to the manufacturer's instructions. Briefly, 50,000 cells were plated for each treatment and the cells were allowed to adhere for 4-6 hours. Cells were then either incubated with media alone (untreated sample) or with pyrodach-4 or cisplatin in the concentrations indicated above. DNA of the treated and untreated cells was assayed for nucleosomal DNA using the ELISA kit (purchased from Roche Diagnostics, Mannheim, Germany). The cells were lysed for 30 minutes using the lysis buffer. After centrifuging, 10% (v/v) supernanant was incubated with anti-histone-biotin and anti-DNA-peroxidase. After two hour incubation, the pellets were washed three times and incubated with the substrate solution. The absorbances were measured at 405 and 490 nm for each treatment type using SPECTRA Max M2 multichannel fluorescence plate reader (Molecular Devices, Sunnyvale, Calif.). The absorbances of the treated samples were normalized to the substrate solution."}, "[5]": {"conditions": "yeast deletion strains, 200 μM final concentration"}}}
{"compound": "NC1CCCCC1N.O=P([O-])(O)OP(=O)([O-])O.[Pt+2]", "note": "(racemic) [pyrodach-2, trans-(±)-1,2-cyclohexanediamine(pyrophosphato) platinum(II)]", "values": [{"measurement": "Tolerability by the yeast cell (few sensitive strains)", "setting": "[1]; highest dose possible, 200 μM final concentration", "result": "well tolerated by the cell"}, {"measurement": "Compound-specific sensitive strain", "setting": "[1]; [5]", "result": "induced sensitivity in the strain avo2"}, {"measurement": "Functions enriched among sensitive strains", "setting": "[1]; [5]", "result": "1) iron and copper transport and 2) metal-regulated transcription factors"}, {"measurement": "Sensitivity of DNA damage/repair genes (NER, HRR, PRR)", "setting": "[1]; yeast deletion strains", "result": "not a single gene involved in DNA repair or other DNA metabolic processes showed any sensitivity as a mutant"}]}
{"compound": "N.N.[Cl][Pt][Cl]", "note": "[Cisplatin, cisplatin, reference compound]", "values": [{"measurement": "Normalized expression of VEGFR2 gene", "setting": "[2]", "result": 2.5}, {"measurement": "Normalized expression of VEGFR2 gene", "setting": "[3]", "result": 2.0}, {"measurement": "Sensitivity of DNA damage/repair genes (NER, HRR, PRR)", "setting": "[1]; yeast deletion strains", "result": "induced expression of those genes related to the DNA response"}, {"measurement": "Apoptotic cell death (ELISA absorbance)", "setting": "[4]", "result": "insignificant increase in absorbance"}]}
